Data from patent publication US8415346B2, “Inhibitors of Janus kinases” (Merck Sharp & Dohme Corp., priority 2008, dated 2013).

What follows are compounds tested against T1, recombinant JAK2 (JAK2 JH1 domain) (Homo sapiens, UniProt O60674) (assay: JAK2 Kinase Activity Inhibition Assay and Determination of IC50 (HTRF)). Conditions: HTRF kinase assay, 15 μM MgATP, 50 nM JAK2 JH1 domain.
T1 construct: 50 nM JAK2 JH1 domain (Upstate); purchased Upstate
Assay type: biochemical
Protocol: JAK2 Kinase Activity Inhibition Assay and Determination of IC50
The kinase activity was measured using a modified version of the homogeneous time-resolved tyrosine kinase assay described in Park et al. Anal. Biochem. 269, 94-104 (1999).
IC50 was obtained by fitting the observed relationship between compound/inhibitor concentration and HTRF signal with a 4-parameter logistic equation.
Compounds of the instant invention are potent inhibitors of recombinant purified JAK2 kinase activity with an IC50 of approximately 8 nM-1 μM.

T1 sequence (O60674 849-1124 limits assumed): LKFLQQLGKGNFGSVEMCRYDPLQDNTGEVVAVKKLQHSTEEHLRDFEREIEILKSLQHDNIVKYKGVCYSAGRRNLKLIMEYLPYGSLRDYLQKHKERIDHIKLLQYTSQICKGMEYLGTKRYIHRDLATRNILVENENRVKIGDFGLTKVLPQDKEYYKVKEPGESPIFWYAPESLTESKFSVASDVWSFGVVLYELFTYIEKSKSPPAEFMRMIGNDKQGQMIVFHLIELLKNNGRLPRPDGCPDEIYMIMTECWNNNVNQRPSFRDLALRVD

SMILES | IC50 [nM]
CS(=O)(=O)c1ccc(Nc2nn(-c3ccccc3)cc2C(N)=O)cc1 [Example 1, 3-{[4-(methylsulfonyl)phenyl]amino}-1-phenyl-1H-pyrazole-4-carboxamide] | 170
CNC(=O)c1ccc(Nc2nn(-c3ccccc3)cc2C(N)=O)cc1 [Example 2, 3-({4-[(methylamino)carbonyl]phenyl}amino)-1-phenyl-1H-pyrazole-4-carboxamide] | 160
NC(=O)c1cn(-c2ccccc2)nc1Nc1ccnc(CO)c1 [Example 3, 3-{[2-(hydroxymethyl)pyridin-4-yl]amino}-1-phenyl-1H-pyrazole-4-carboxamide] | 860
NC(=O)c1cn(-c2ccccc2)nc1Nc1ccc(C(=O)N2CCOCC2)cc1 [Example 4, 3-{[4-(morpholin-4-ylcarbonyl)phenyl]amino}-1-phenyl-1H-pyrazole-4-carboxamide] | 94
NC(=O)c1cn(-c2ccccc2)nc1Nc1ccc(S(=O)(=O)N2CCOCC2)cc1 [Example 5, 3-{[4-(morpholin-4-ylsulfonyl)phenyl]amino}-1-phenyl-1H-pyrazole-4-carboxamide] | 63
CN(C)C(=O)c1ccc(Nc2nn(-c3ccccc3)cc2C(N)=O)cc1 [Example 7, 3-({4-[(dimethylamino)carbonyl]phenyl}amino)-1-phenyl-1H-pyrazole-4-carboxamide] | 56
NC(=O)c1cn(-c2ccccc2)nc1Nc1ccccc1 [Example 8, 3-anilino-1-phenyl-1H-pyrazole-4-carboxamide] | 480
CC(C)(O)c1ccc(Nc2nn(-c3ccccc3)cc2C(N)=O)cc1 [Example 14, 3-{[4-(1-hydroxy-1-methylethyl)phenyl]amino}-1-phenyl-1H-pyrazole-4-carboxamide] | 81
CS(=O)(=O)c1ccc(Nc2nn(-c3ccc(Cl)cc3)cc2C(N)=O)cc1 [Example 15, 1-(4-chlorophenyl)-3-{[4-(methylsulfonyl)phenyl]amino}-1H-pyrazole-4-carboxamide] | 290

Compounds with a lower IC50, results first:

IC50 [nM] | SMILES
42 | CN(C)S(=O)(=O)c1ccc(Nc2nn(-c3ccccc3)cc2C(N)=O)cc1 [Example 6, 3-({4-[(dimethylamino)sulfonyl]phenyl}amino)-1-phenyl-1H-pyrazole-4-carboxamide]
38 | CN1CCN(C(=O)c2ccc(Nc3nn(-c4ccccc4)cc3C(N)=O)cc2)CC1 [Example 9, 3-({4-[(4-methylpiperazin-1-yl)carbonyl]phenyl}amino)-1-phenyl-1H-pyrazole-4-carboxamide]
13 | NC(=O)c1cn(-c2ccccc2)nc1Nc1ccc(C(=O)N2CCS(=O)(=O)CC2)cc1 [Example 10, 3-({4-[(1,1-dioxidothiomorpholin-4-yl)carbonyl]phenyl}amino)-1-phenyl-1H-pyrazole-4-carboxamide]
49 | NC(=O)c1cn(-c2ccccc2)nc1Nc1ccc(CN2CCOCC2)cc1 [Example 11, 3-{[4-(morpholin-4-ylmethyl)phenyl]amino}-1-phenyl-1H-pyrazole-4-carboxamide]
36 | NC(=O)c1cn(-c2ccccc2)nc1Nc1ccc(CN2CCS(=O)(=O)CC2)cc1 [Example 12, 3-({4-[(1,1-dioxidothiomorpholin-4-yl)methyl]phenyl}amino)-1-phenyl-1H-pyrazole-4-carboxamide]
36 | CN(C)Cc1ccc(Nc2nn(-c3ccccc3)cc2C(N)=O)cc1 [Example 13, 3-({4-[(dimethylamino)methyl]phenyl}amino)-1-phenyl-1H-pyrazole-4-carboxamide]
48 | CS(=O)(=O)c1ccc(Nc2nn(-c3ccc(S(C)(=O)=O)cc3)cc2C(N)=O)cc1 [Example 16, 1-[4-(methylsulfonyl)phenyl]-3-{[4-(methylsulfonyl)phenyl]amino}-1H-pyrazole-4-carboxamide]
8.1 | CC(C)(C)c1ccc(-n2cc(C(N)=O)c(Nc3ccc(S(C)(=O)=O)cc3)n2)cc1 [Example 17, 1-(4-tert-butylphenyl)-3-{[4-(methylsulfonyl)phenyl]amino}-1H-pyrazole-4-carboxamide]
20 | CC(O)c1ccc(-n2cc(C(N)=O)c(Nc3ccc(S(C)(=O)=O)cc3)n2)cc1 (stereo not drawn) [Example 18, 1-[4-(1-hydroxyethyl)phenyl]-3-{[4-(methylsulfonyl)phenyl]amino}-1H-pyrazole-4-carboxamide]
